Test results: US20090088323A1, “Compositions with cyclopropenes and adjuvants” (priority 2004, published 2009)

Columns and labels:
[1] = tested on: Tomatoes (Rutgers 39 Variety); test: Tomato epinasty test (foliar spray to run off, then ethylene exposure); assay type: in vivo
Procedure: Tomato epinasty tests were performed as follows:
Two seeds were place in each pot. Plants that had expanded first true leaves and were between 3 and 5 inches high were used for the tomato epinasty test.
To conduct the assay, the plants were sprayed-to run off with the test 1-MCP foliar spray and allowed to dry for 4 hours in sunlight These operations were performed in a ventilated area away from the plants growing in the greenhouse so there would not be any unintended treatment to growing plants destined for later experiments.
(§1) The 1-MCP treated plants and both treated and untreated controls were placed into an SLX controlled-atmosphere shipping box and sealed. To the box, ethylene was injected through a septum, which gave a concentration of 14 ppm. The plants were held sealed for 12-14 hours in the dark with ethylene in the atmosphere. At the end of ethylene treatment, the box was opened and scored for epinasty. Scoring for epinasty was accomplished by using the following scoring system for each pot. • 1. 0% no epinasty (100% control) • 2. 20% A couple leaves show some drooping (80% control) • 3. 50% Plants show 50% of full response. Not all leaves need to show effect. (50% control) • 4. 80% Almost all leaves drooping and some show underside of leaf exposed on top. (20% control) • 5. 100% Leaves completely drooping and the underside of the leaf exposed from above. (0% control)
The score of each pot is recorded. The average of 6 or 8 pots is averaged to get a score. The percentage improvement is calculated by interpolating the percentage improvement from the control water (i.e., no additives) 1-MCP treatment.
Tomato epinasty tests were conducted using a formulation that included water, a 1-MCP α-CD complex, and sodium salt of EDTA. […] The amount of sodium salt of EDTA in each formulation was 100 ppm. In some formulations, further ingredients were included, as described in the examples below.
Tomato epinasty tests were conducted using a formulation that included water; a 1-MCP α-CD complex that contained 0. […] The amount of 1-MCP α-CD complex was chosen so that the spray formulation had 1.2 ppm of 1-MCP. The amount of sodium salt of EDTA was kept at 50 ppm in the liquid. Also included in the spray formulations were various silicone oils (0.1% by weight based on the weight of the spray).
The amount of 1-MCP α-CD complex was chosen so that the spray formulation had 1.2 ppm of 1-MCP. The amount of sodium salt of EDTA was kept at 50 ppm. Also included in the spray formulations were various silicone oils at 0.1% by weight based on the weight of the spray formulation and sodium dioctylsufosuccinate surfactant at 0.05% by weight based on the weight of the spray formulation.

[2] = tested on: Tomatoes (Rutgers 39 Variety); test: Tomato epinasty test, plants sprayed in spray hood with motorized track sprayer; assay type: in vivo; conditions: 1-MCP spray rate 20 grams/hectare, no adjuvant
Procedure: Tomatoes (Rutgers 39 Variety Harris Seeds No 885 Lot 37729-A3) were grown in 2 ½″ square pots filled with a commercial potting mix. Two seeds were place in each pot. Plants that had expanded first true leaves and were between 3 and 5 inches high were used for the tomato epinasty test.
as §1
The score of each pot is recorded. The average of 6 or 8 pots is averaged to get a score. The percentage improvement is calculated by interpolating the percentage improvement from the control water (i.e., no additives) 1-MCP treatment. […]

Structure (SMILES): CC1=CC1 [1-MCP, 1-methylcyclopropene]
- % Control of Epinasty ([1]; 1.2 ppm 1-MCP, silicone oil 0.1 weight % / sodium dioctylsulfosuccinate 0.05 weight % (0 for control), 50 ppm EDTA sodium salt): 8%
- % Control of Epinasty ([1]; 1.2 ppm 1-MCP, silicone oil 0.1 weight % in spray (0 for control), 50 ppm EDTA sodium salt): 8%
- % Control of Epinasty ([1]; 70 ppb 1-MCP (as α-CD complex), no adjuvants, 100 ppm EDTA sodium salt, 14 ppm ethylene 12-14 h): 10%
- % Control of Epinasty ([1]; 140 ppb 1-MCP (as α-CD complex), no adjuvants, 100 ppm EDTA sodium salt): 15%
- % Control of Epinasty ([1]; 280 ppb 1-MCP (as α-CD complex), no adjuvants, 100 ppm EDTA sodium salt): 35%
- % Control of Epinasty ([1]; 1400 ppb 1-MCP (as α-CD complex), no adjuvants, 100 ppm EDTA sodium salt): 85%
- % Control of Epinasty [2]: 26%
